Results as given in ChEMBL document CHEMBL5550149, “Synthesis and evaluation of catecholamine derivatives as amyloid-beta aggregation inhibitors” (Bioorg Med Chem Lett, 2024).
Converted amounts (≈) assume the structure as drawn. The source made the active and inactive calls. The calls are words filed in the database; no cut-off is given here.

What was measured:
[1] = biological target: Amyloid-beta precursor protein (Homo sapiens) (UniProt P05067); assay: Inhibition of amyloid beta (unknown origin) aggregation at 10 uM incubated for 20 hrs by Tht-based fluorescence spectroscopy assay relative to control
Chain of Amyloid-beta precursor protein (Homo sapiens) (P05067 whole entry): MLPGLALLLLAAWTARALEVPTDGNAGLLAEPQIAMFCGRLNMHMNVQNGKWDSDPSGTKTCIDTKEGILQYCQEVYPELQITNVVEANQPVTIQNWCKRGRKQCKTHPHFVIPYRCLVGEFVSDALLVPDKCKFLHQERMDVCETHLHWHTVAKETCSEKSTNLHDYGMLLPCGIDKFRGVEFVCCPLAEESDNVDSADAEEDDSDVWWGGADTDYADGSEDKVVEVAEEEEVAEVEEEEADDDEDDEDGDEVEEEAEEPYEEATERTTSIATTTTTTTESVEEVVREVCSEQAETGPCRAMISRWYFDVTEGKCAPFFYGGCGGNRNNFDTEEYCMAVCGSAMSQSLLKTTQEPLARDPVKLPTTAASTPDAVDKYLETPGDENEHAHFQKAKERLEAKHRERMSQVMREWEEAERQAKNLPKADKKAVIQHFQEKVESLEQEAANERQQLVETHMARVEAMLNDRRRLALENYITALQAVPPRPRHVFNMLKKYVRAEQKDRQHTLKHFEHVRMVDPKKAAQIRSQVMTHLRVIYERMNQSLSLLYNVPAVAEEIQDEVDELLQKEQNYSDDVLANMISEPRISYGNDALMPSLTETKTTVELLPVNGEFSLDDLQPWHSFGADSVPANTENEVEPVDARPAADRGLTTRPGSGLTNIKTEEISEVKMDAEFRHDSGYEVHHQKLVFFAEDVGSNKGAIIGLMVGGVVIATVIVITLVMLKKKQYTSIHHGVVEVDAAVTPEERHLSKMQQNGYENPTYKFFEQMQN

[2] = biological target: Amyloid-beta precursor protein (Homo sapiens) (UniProt P05067); assay: Inhibition of amyloid beta (unknown origin) aggregation at 1 uM incubated for 20 hrs by Tht-based fluorescence spectroscopy assay relative to control
[3] = Aqueous solubility of compound by shake flask method; format: physicochemical; details: water
[4] = Cytotoxicity against rat PC12 cells measured for 24 hrs by WST-assay; format: toxicity, cell-based, PC-12
[5] = biological target: Amyloid-beta precursor protein (Homo sapiens) (UniProt P05067); assay: Inhibition of amyloid beta (unknown origin) aggregation assessed as change in aggregated monomers structure measured for 10 hrs by Tht-based fluorescence spectroscopy assay
[6] = biological target: Amyloid-beta precursor protein (Homo sapiens) (UniProt P05067); assay: Inhibition of amyloid beta (unknown origin) aggregation assessed as reduction in rod like structure by […] analysis
[7] = biological target: Amyloid-beta precursor protein (Homo sapiens) (UniProt P05067); assay: Inhibition of amyloid beta (unknown origin) aggregation assessed as reduction in beta-sheet formation by CD spectroscopy analysis
[8] = biological target: Amyloid-beta precursor protein (Homo sapiens) (UniProt P05067); assay: Inhibition of amyloid beta (unknown origin) aggregation assessed as aggregate diameter by […] analysis

| SMILES | inhibition [1] [%] | inhibition [2] [%] | solubility thermodynamic [3] [µM] | inhibition [5] | inhibition [6] | inhibition [7] | Activity [8] [nm] | CC50 at 24 h [4] [µM] |
| --- | --- | --- | --- | --- | --- | --- | --- | --- |
| O=C(N[C@H](CO)Cc1ccc(O)c(O)c1)c1ccc(O)cc1 | 20 | 0 | 1600 (≈ 485 µg/mL) | – | – | – | – | > 150 |
| O=C(/C=C/c1ccc(O)c(O)c1)NCCc1ccc(O)c(O)c1 | 100 | 55 | 1500 (≈ 473 µg/mL) | Active | Active | inactive | 74 | > 150 |
| O=C(Cc1ccc(O)cc1)NCCc1ccc(O)c(O)c1 | 80 | 18 | 2000 (≈ 575 µg/mL) | – | – | – | – | > 150 |
| O=C(N[C@H](CO)Cc1ccc(O)c(O)c1)c1ccccc1 | 70 | 0 | 700 (≈ 201 µg/mL) | – | – | – | – | > 150 |
| O=C(Cc1ccccc1)NCCc1ccc(O)c(O)c1 | 30 | 0 | 1300 (≈ 353 µg/mL) | – | – | – | – | > 150 |
| O=C(Cc1cc(O)c(O)c(O)c1)NCCc1ccc(O)c(O)c1 | 90 | 20 | 3200 (≈ 1020 µg/mL) | – | – | – | – | 80 |
| O=C(Cc1cc(O)cc(O)c1)NCCc1ccc(O)c(O)c1 | 25 | 0 | 1800 (≈ 546 µg/mL) | – | – | – | – | > 150 |
| O=C(/C=C/c1ccccc1)NCCc1ccc(O)c(O)c1 | 92 | 40 | 750 (≈ 212 µg/mL) | – | – | – | – | > 150 |
| O=C(Cc1cc(O)ccc1O)NCCc1ccc(O)c(O)c1 | 80 | 19 | 800 (≈ 243 µg/mL) | – | – | – | – | > 150 |
| O=C(N[C@H](CO)Cc1ccc(O)c(O)c1)c1cc(O)cc(O)c1 | 22 | 0 | 1500 (≈ 479 µg/mL) | – | – | – | – | > 150 |
| O=C(N[C@H](CO)Cc1ccc(O)c(O)c1)c1cc(O)c(O)c(O)c1 | 85 | 16 | 3000 (≈ 1010 µg/mL) | – | – | – | – | 80 |
| COC(=O)[C@H](Cc1ccc(O)c(O)c1)NC(=O)c1cc(O)c(O)c(O)c1 | 95 | 30 | 377 (≈ 137 µg/mL) | – | – | – | – | 150 |
| N[C@@H](Cc1ccc(O)c(O)c1)C(=O)O | 31 | 0 | – | – | – | – | – | – |

More lines, main results first:

| inhibition [1] [%] | inhibition [2] [%] | solubility thermodynamic [3] [µM] | inhibition [5] | inhibition [6] | inhibition [7] | Activity [8] [nm] | SMILES | CC50 at 24 h [4] [µM] |
| --- | --- | --- | --- | --- | --- | --- | --- | --- |
| 92 | 29 | 2500 (≈ 758 µg/mL) | – | – | – | – | O=C(Cc1ccc(O)c(O)c1)NCCc1ccc(O)c(O)c1 | > 150 |
| – | 76 | 2340 (≈ 735 µg/mL) | – | – | – | – | O=C1C=C(c2ccc(O)c(O)c2)OC(c2cc(O)ccc2O)C1 (centres undefined) | – |
| 86 | – | 1410 (≈ 507 µg/mL) | – | – | – | – | O=C(/C=C/c1ccc(O)c(O)c1)N[C@@H](Cc1ccc(O)c(O)c1)C(=O)O | > 150 |
| 80 | 0 | 1300 (≈ 415 µg/mL) | – | – | – | – | O=C(N[C@H](CO)Cc1ccc(O)c(O)c1)c1cccc(O)c1O | > 150 |
| 90 | 35 | 1200 (≈ 383 µg/mL) | – | – | – | – | O=C(N[C@H](CO)Cc1ccc(O)c(O)c1)c1ccc(O)c(O)c1 | > 150 |
| 70 | 0 | 2000 (≈ 607 µg/mL) | – | – | – | – | O=C(Cc1cccc(O)c1O)NCCc1ccc(O)c(O)c1 | > 150 |
| 70 | 28 | 2500 (≈ 798 µg/mL) | – | – | – | – | O=C(N[C@H](CO)Cc1ccc(O)c(O)c1)c1cc(O)ccc1O | > 150 |
